# Assay results as given in patent publication US7470680B2, “Constrained compounds as CGRP-receptor antagonists” (Bristol-Myers Squibb Company, priority 2006, dated 2008).
# Biological target: CGRP receptor (Homo sapiens, UniProt O60894+Q16602)
# Assay: CGRP radioligand binding assay ([125I]-CGRP displacement, SK-N-MC homogenate)
# Parameters: endogenous in cells; host or cells: SK-N-MC cells (homogenate/membrane pellet)
# Settings: Table 1; displacement of [125I]-CGRP, SK-N-MC membranes
# Procedure: CGRP Binding Assay. Tissue Culture. SK-N-MC cells were grown at 37° C. in 5% CO2 as a monolayer in medium consisting of MEM with Earle's salts and L-glutamine (Gibco) supplemented with 10% fetal bovine serum (Gibco). Cell Pellets. The cells were rinsed twice with phosphate-buffered saline (155 mM NaCl, 3.3 mM Na2HPO4, 1.1 mM KH2PO4, pH 7.4), and incubated for 5-10 min. at 4° C. in hypotonic lysis buffer consisting of 10 mM Tris (pH 7.4) and 5 mM EDTA. The cells were transferred from plates to polypropylene tubes (16×100 mm) and homogenized using a polytron. Homogenates were centrifuged at 32,000×g for 30 min. The pellets were resuspended in cold hypotonic lysis buffer with 0.1% mammalian protease inhibitor cocktail (Sigma) and assayed for protein concentration. The SK-N-MC homogenate was then aliquoted and stored at −80° C. until needed.
# Radioligand Binding Assay. The compounds of invention were solubilized and carried through serial dilutions using 100% DMSO. Aliquots from the compound serial dilutions were further diluted 25 fold into assay buffer (50 mM Tris-Cl pH 7.5, 5 mM MgCl2, 0.005% Triton X-100) and transferred (volume 50 μl) into 96 well assay plates. [^125I]-CGRP (Amersham Biosciences) was diluted to 60 pM in assay buffer and a volume of […] was added to each well. SK-N-MC pellets were thawed, diluted in assay buffer with fresh 0.1% mammalian protease inhibitor cocktail (Sigma), and homogenized again. SK-N-MC homogenate (5 μg/well) was added in a volume of 100 μl. The assay plates were then incubated at room temperature for 2 h. Assays were stopped by addition of excess cold wash buffer (20 mM Tris-Cl pH 7.5, 0.1% BSA) immediately followed by filtration over glass fiber filters (Whatman GF/B) previously soaked in 0.5% PEI. Non-specific binding was defined with 1 μM beta-CGRP. Protein bound radioactivity was determined using a gamma or scintillation counter. The IC50 was defined as the concentration of a compound of invention required to displace 50% of radioligand binding.
# Chain of CGRP receptor (Q16602 23-461): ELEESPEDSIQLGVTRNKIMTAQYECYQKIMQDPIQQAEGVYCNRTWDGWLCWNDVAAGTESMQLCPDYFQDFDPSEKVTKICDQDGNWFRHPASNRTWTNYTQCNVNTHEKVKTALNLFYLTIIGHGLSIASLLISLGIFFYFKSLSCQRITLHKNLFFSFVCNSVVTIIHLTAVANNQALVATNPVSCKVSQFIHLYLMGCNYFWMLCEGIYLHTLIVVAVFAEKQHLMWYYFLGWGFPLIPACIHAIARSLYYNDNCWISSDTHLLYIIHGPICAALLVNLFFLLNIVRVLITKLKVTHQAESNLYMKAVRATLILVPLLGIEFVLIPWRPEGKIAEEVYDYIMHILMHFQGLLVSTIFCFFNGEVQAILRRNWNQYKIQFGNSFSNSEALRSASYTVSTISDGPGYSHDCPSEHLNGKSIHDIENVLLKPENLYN
# Chain of CGRP receptor (O60894 27-148): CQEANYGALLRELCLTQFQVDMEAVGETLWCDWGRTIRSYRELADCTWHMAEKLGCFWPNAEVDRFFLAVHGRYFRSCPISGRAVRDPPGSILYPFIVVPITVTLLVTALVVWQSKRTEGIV
row,IC50 [nM],SMILES
1,0.01 to 10,O=C(C[C@@H]1Cc2cc(Cl)c3[nH]nc(Cl)c3c2CN(CCN2CCCCC2)C1=O)N1CCC(n2c(=O)[nH]c3ncccc32)CC1
2,0.01 to 10,O=C(O[C@@H]1Cc2cc(Cl)c3[nH]ncc3c2CN(CC(F)(F)F)C1=O)N1CCC(n2c(=O)[nH]c3ncccc32)CC1
3,0.01 to 10,O=C(C[C@@H]1Cc2cc(Cl)c3[nH]nc(Cl)c3c2CN(CC(F)(F)F)C1=O)N1CCC(N2CCc3ccccc3NC2=O)CC1
4,0.01 to 10,CC(C)(C)CN1Cc2c(cc(Cl)c3[nH]ncc23)C[C@@H](CC(=O)N2CCC(c3cc4sc(Cl)cc4[nH]c3=O)CC2)C1=O
5,10 to 100,CCCn1ncc2c3c(cc(Cl)c21)C[C@@H](CC(=O)N1CCC(N2CCc4ccccc4NC2=O)CC1)C(=O)N(CC(F)(F)F)C3
6,0.01 to 10,O=C(C[C@@H]1Cc2cc(Br)c3[nH]nc(Cl)c3c2CN(CC(F)(F)F)C1=O)N1CCC(n2c(=O)[nH]c3ncccc32)CC1
7,0.01 to 10,Cn1ncc2c3c(cc(Cl)c21)C[C@@H](CC(=O)N1CCC(n2c(=O)[nH]c4ncccc42)CC1)C(=O)N(CC(F)(F)F)C3
8,0.01 to 10,O=C(C[C@@H]1Cc2cc(Cl)c3[nH]ncc3c2CN(CC(F)(F)F)C1=O)N1CCC(n2c(=O)[nH]c3c(F)cccc32)CC1
9,10 to 100,CCn1ncc2c3c(cc(Cl)c21)C[C@@H](CC(=O)N1CCC(n2c(=O)[nH]c4ncccc42)CC1)C(=O)N(CC(F)(F)F)C3
10,0.01 to 10,CC(C)(C)CN1Cc2c(cc(Cl)c3[nH]ncc23)C[C@@H](CC(=O)N2CCC(c3cc4scc(Cl)c4[nH]c3=O)CC2)C1=O (mixture of isomers)
11,0.01 to 10,O=C(C[C@@H]1Cc2cc(Cl)c3[nH]ncc3c2CN(CC(F)(F)F)C1=O)N1CCC(n2c(=O)[nH]c3ccccc32)CC1
12,0.01 to 10,O=C(C[C@@H]1Cc2cc(Cl)c3[nH]ncc3c2CN(CC(F)(F)F)C1=O)N1CCC(n2cc[nH]c2=O)CC1
13,0.01 to 10,O=C(C[C@@H]1Cc2cc(Br)c3[nH]nc(Cl)c3c2CN(CC(F)(F)F)C1=O)N1CCC(N2CCc3ccccc3NC2=O)CC1
14,100 to 1000,CC(C)(C)CN1Cc2c(cc(Cl)c3[nH]ccc23)C[C@@H](CC(=O)N2CCC(O)(c3cc(Cl)nc4[nH]ccc34)CC2)C1=O
15,10 to 100,COCn1ncc2c3c(cc(Cl)c21)C[C@@H](CC(=O)N1CCC(N2CCc4ccccc4NC2=O)CC1)C(=O)N(CC(F)(F)F)C3
16,100 to 1000,O=C(C[C@@H]1Cc2cc(Cl)c3[nH]ncc3c2CN(CC(F)(F)F)C1=O)N1CCC(n2ccn(-c3ccccc3)c2=O)CC1
17,0.01 to 10,COCCn1ncc2c3c(cc(Cl)c21)C[C@@H](CC(=O)N1CCC(N2CCc4ccccc4NC2=O)CC1)C(=O)N(CC(F)(F)F)C3
18,10 to 100,O=C(C[C@@H]1Cc2cc(Cl)c3[nH]ncc3c2CN(CC(F)(F)F)C1=O)N1CCC(N2CCc3cccc(F)c3NC2=O)CC1
19,0.01 to 10,O=C1Nc2ccccc2C2(CCN(C(=O)C[C@@H]3Cc4cc(Cl)c5[nH]ncc5c4CN(CC(F)(F)F)C3=O)CC2)N1
20,0.01 to 10,O=C(C[C@@H]1Cc2cc(Br)c3[nH]nc(Br)c3c2CN(CC(F)(F)F)C1=O)N1CCC(n2c(=O)[nH]c3ncccc32)CC1
21,0.01 to 10,CC(C)(C)CN1Cc2c(cc(Cl)c3[nH]ccc23)C[C@@H](CC(=O)N2CCC(c3cc4sccc4[nH]c3=O)CC2)C1=O
22,0.01 to 10,O=C(C[C@@H]1Cc2cc(Br)c3[nH]nc(Br)c3c2CN(CC(F)(F)F)C1=O)N1CCC(N2CCc3ccccc3NC2=O)CC1
23,0.01 to 10,O=C(C[C@@H]1Cc2cc(Cl)c3[nH]ncc3c2CN(CC(F)(F)F)C1=O)N1CCC(N2CCc3ncccc3NC2=O)CC1
24,10 to 100,O=C1NC(=O)C2(CCN(C(=O)C[C@@H]3Cc4cc(Cl)c5[nH]ncc5c4CN(CC(F)(F)F)C3=O)CC2)N1
25,0.01 to 10,O=C(C[C@@H]1Cc2cc(Cl)c3[nH]nc(Cl)c3c2CN(CCN2CCCCC2)C1=O)N1CCC(N2CCc3ccccc3NC2=O)CC1
26,0.01 to 10,O=C(C[C@@H]1Cc2cc(Cl)c3[nH]ncc3c2CN(CC(F)(F)F)C1=O)N1CCC(N2CCc3ccccc3NC2=O)CC1
27,0.01 to 10,Cn1ccc2[nH]c(=O)c(C3CCN(C(=O)C[C@@H]4Cc5cc(Cl)c6[nH]ccc6c5CN(CC(C)(C)C)C4=O)CC3)cc21
28,10 to 100,N#Cc1cc(Cl)ccc1C1=CCN(C(=O)C[C@@H]2Cc3cc(Cl)c4[nH]ncc4c3CN(CC(F)(F)F)C2=O)CC1
29,10 to 100,O=C(C[C@@H]1Cc2cc(Cl)c3[nH]ncc3c2CN(CC(F)(F)F)C1=O)N1CCC(n2c(=O)[nH]c3c2ccc[n+]3[O-])CC1

# Same assay, conditions: Table 2; displacement of [125I]-CGRP, SK-N-MC membranes
row,IC50 [nM],SMILES
1,0.01 to 10,Cc1cc2c(c3cn[nH]c13)CN(CC(C)(C)C)C(=O)[C@H](CC(=O)N1CCC(c3cc4ccccc4[nH]c3=O)CC1)C2
2,0.01 to 10,O=C(C[C@@H]1Cc2cc(Br)c3[nH]ncc3c2CN(CC2CC2)C1=O)N1CCC(c2cc3ccccc3[nH]c2=O)CC1
3,100 to 1000,O=C1Nc2ccccc2CC1N1CCN(C(=O)N[C@@H]2Cc3ccc4[nH]ncc4c3CN(Cc3ccccc3)C2=O)CC1 (some centres unmarked)
4,0.01 to 10,O=C(C[C@@H]1Cc2cc(Cl)c3[nH]ncc3c2CN(CC(F)(F)F)C1=O)N1CCC(c2cc3ccccc3[nH]c2=O)CC1
5,> 1000,COc1cc2ccccc2cc1C1CCN(C(=O)N[C@@H]2Cc3cc(Cl)c4[nH]ncc4c3CN(CC(C)(C)C)C2=O)CC1
6,0.01 to 10,CC(C)(C)CN1Cc2c(cc(Cl)c3[nH]ncc23)C[C@@H](CC(=O)N2CCC(c3cc4ccc(F)cc4[nH]c3=O)CC2)C1=O
7,0.01 to 10,O=C(C[C@@H]1Cc2cc(Cl)c3[nH]ncc3c2CN(Cc2ccncc2)C1=O)N1CCC(c2cc3ccccc3c[n+]2[O-])CC1
8,0.01 to 10,O=C(C[C@@H]1Cc2cc(Br)c3[nH]ncc3c2CN(CC(F)(F)F)C1=O)N1CCC(c2cc3cccnc3[nH]c2=O)CC1
9,0.01 to 10,O=C(C[C@@H]1Cc2cc(Cl)c3[nH]ncc3c2CN(CC(F)(F)F)C1=O)N1CCC(N2Cc3ccccc3NC2=O)CC1
10,0.01 to 10,Cc1cc2c(c3cn[nH]c13)CN(CC(F)(F)F)C(=O)[C@H](CC(=O)N1CCC(c3cc4ccccc4[nH]c3=O)CC1)C2
11,0.01 to 10,O=C(C[C@@H]1Cc2cc(Cl)c3[nH]ncc3c2CN(Cc2ccncc2)C1=O)N1CCC(c2cc3cccc(F)c3[nH]c2=O)CC1
12,100 to 1000,CC(C)(C)CN1Cc2c(ccc3[nH]ncc23)C[C@@H](CC(=O)N2CCC(N3Cc4ccccc4NC3=O)CC2)C1=O [drawing 135]
13,0.01 to 10,CC(C)(C)CN1Cc2c(cc(Cl)c3[nH]ncc23)C[C@@H](CC(=O)N2CCC(N3Cc4cccnc4NC3=O)CC2)C1=O
14,100 to 1000,CC(C)(C)CN1Cc2c(ccc3[nH]ncc23)C[C@@H](NC(=O)N2CCC3(CC2)N=C(c2ccccc2)NC3=O)C1=O
15,10 to 100,CC(C)(C)CN1Cc2c(cc(Cl)c3[nH]ncc23)C[C@@H](CC(=O)N2CCC(c3cc4cc(F)c(F)cc4[nH]c3=O)CC2)C1=O
16,10 to 100,CC(=O)N1CCC(N2Cc3c(ccc4[nH]ncc34)C[C@@H](NC(=O)N3CCC(N4Cc5ccccc5NC4=O)CC3)C2=O)CC1
17,0.01 to 10,CC(C)(C)CN1Cc2c(cc(Cl)c3[nH]ncc23)C[C@@H](CC(=O)N2CCC(c3cc4ccc(Cl)cc4[nH]c3=O)CC2)C1=O
18,0.01 to 10,O=C(C[C@@H]1Cc2cc(Cl)c3[nH]ncc3c2CN(CC(F)(F)F)C1=O)N1CCC(c2cc3cccc(F)c3[nH]c2=O)CC1
19,0.01 to 10,CC(C)(C)CN1Cc2c(cc(Cl)c3[nH]ncc23)C[C@@H](CC(=O)Nc2ccc3c(c2)CCC2(C3)NC(=O)NC2=O)C1=O (some centres unmarked)
20,0.01 to 10,COCCN1Cc2c(cc(Br)c3[nH]ncc23)C[C@@H](CC(=O)N2CCC(c3cc4ccccc4[nH]c3=O)CC2)C1=O
21,0.01 to 10,CC(C)(C)CN1Cc2c(cc(Br)c3[nH]ncc23)C[C@@H](CC(=O)N2CCC(c3cc4ccccc4[nH]c3=O)CC2)C1=O
